In patent US5807854A, “Pyrimidone derivatives with antifungal activity” (J. Uriah & Cia. S.A., priority 1995, dated 1998) one finds responders and MIC data, which are given here for 23 compounds.

Values after ≈ are worked out from the molar mass of the structure shown.

In assay [1] the test system is Candida albicans. Briefly: In Vivo Activity (Systemic Candidiasis). Particulars: po, 576 h, orally at 1 mg/kg at 1, 4 and 24 h after infection, male mice, i.v. infection, read-out: protection on the day where all the animals in the control group had died. How it is done:
Groups of 10 male mice were inoculated i.v. with 0.2 mL of a suspension containing (2-8)×10^7 cfu/mL of Candida albicans. Compounds were administered orally at 1 mg/kg (or at 10 mg/kg for those compounds marked with an asterisk) at times 1, 4 and 24 h after infection.

Assay [2] deals with C. albicans. The experiment in a line: In vitro activity by the agar dilution method, C. albicans. It is filed as cell-based. Particulars: Candida albicans; Kimmig's agar, 25° C., 48 h; read-out: MIC (minimal inhibitory concentration), C. albicans. How it is done:
(§1) In vitro activity was evaluated against C. albicans, C. krusei, and Aspergillus fumigatus by the agar dilution method. Test strains were either clinical isolates or were obtained from ATCC. Stock solutions containing 800 μg/mL were prepared by solving the test products in 50% ethanol. The culture medium used was Kimmig's agar (K. A., E. Merck) supplemented with 0.5% glycerol. Plates containing serial dilutions (80 to 0.025 gg/imL) of the test products were inoculated with 10 μL of the fungal inocula, containing 10^5 colony forming units (cfu)/mL. Plates were incubated at 25° C. during 48 h for Candida sp. and during 5 days for Apergillus fumigatus. Following incubation MICs (minimal inhibitory concentrations) were determined.
On the technique in general: Agar dilution tests growth on a series of plates holding different concentrations.

For assay [3], the system named is C. krusei. The experiment in a line: In vitro activity by the agar dilution method, C. krusei. It is filed as cell-based. As to conditions: Pichia kudriavzevii; Kimmig's agar, 25° C., 48 h; read-out: MIC (minimal inhibitory concentration), C. krusei. How it is done:
as §1

The test system of assay [4] is Aspergillus fumigatus. Briefly: In vitro activity by the agar dilution method, Aspergillus fumigatus. As to conditions: 120 h, Kimmig's agar, 25° C., 5 days, read-out: MIC (minimal inhibitory concentration), Asp. fumigatus. The assay is classed as cell-based. As to the method:
as §1

For the compound `C[C@@H](n1cnc2cc(-c3ccc(C#N)cc3)sc2c1=O)[C@](O)(Cn1cncn1)c1ccc(Cl)cc1Cl` [Example 55, (1R,2R)-4-[3-[2-(2,4-Dichlorophenyl)-2-hydroxy-1-methyl-3-(1H-1,2,4-triazol-1-yl)propyl]-4-oxo-3,4-dihydrothieno[3,2-d]pyrimidin-6-yl]benzonitrile], the responders at 1 mg/kg in assay [1] stood at 100%.
Still for that read-out and setting: to `C[C@@H](n1cnc2cc(-c3ccc(Cl)cc3)sc2c1=O)[C@](O)(Cn1cncn1)c1ccc(Cl)cc1Cl` [Example 54, (1R,2R)-6-(4-Chlorophenyl)-3-[2-(2,4-dichlorophenyl)-2-hydroxy-1-methyl-3-(1H-1,2,4-triazol-1-yl)propyl]thieno[3,2-d]pyrimidin-4(3H)-one] belongs 100%.
The same measure, in the same setting: to `C[C@@H](n1cnc2cc(-c3ccc(C(=N)NO)cc3)sc2c1=O)[C@](O)(Cn1cncn1)c1ccc(F)cc1F` [Example 62, (1R,2R)-3-[2-(2,4-Difluorophenyl)-2-hydroxy-1-methyl-3-(1H-1,2,4-triazol-1-yl)propyl]-6-[4-[(hydroxyamino)iminomethyl]phenyl]thieno[3,2-d]pyrimidin-4(3H)-one] belongs 100%.
Consider `C[C@@H](n1cnc2cc(S(C)(=O)=O)ccc2c1=O)[C@](O)(Cn1cncn1)c1ccc(F)cc1F` [Example 51, (1R,2R)-3-[2-(2,4-Difluorophenyl)-2-hydroxy-1-methyl-3-(1H-1,2,4-triazol-1-yl)propyl]-7-(methylsulfonyl)quinazolin-4(3H)-one], for which the responders at 1 mg/kg in assay [1] is 100%.
With `C[C@@H](n1cnc2cc(Sc3ccccc3)ccc2c1=O)[C@](O)(Cn1cncn1)c1ccc(F)cc1F` [Example 60, (1R,2R)-3-[2-(2,4-Difluorophenyl)-2-hydroxy-1-methyl-3-(1H-1,2,4-triazol-1-yl)propyl]-7-(phenylthio)quinazolin-4(3H)-one], the MIC is no more than 0.03 µg/mL in assay [2], 0.31 µg/mL (≈ 0.613 µM) in assay [3] and 0.63 µg/mL (≈ 1.25 µM) in assay [4].
`C[C@@H](n1cnc2cc(-c3ccc(OCC(F)(F)C(F)F)cc3)sc2c1=O)[C@](O)(Cn1cncn1)c1ccc(F)cc1F` [Example 34, (1R,2R)-3-[2-(2,4-Difluorophenyl)-2-hydroxy-1-methyl-3-(1H-1,2,4-triazol-1-yl)propyl]-6-[4-(2,2,3,3-tetrafluoropropoxy)phenyl]thieno[3,2-d]pyrimidin-4(3H)-one]: the responders at 1 mg/kg in assay [1] is 100%.
In the case of `C[C@@H](n1cnc2cc(-n3cncn3)ccc2c1=O)[C@](O)(Cn1cncn1)c1ccc(F)cc1F` [Example 48, (1R,2)-3-[2-(2,4-Difluorophenyl)-2-hydroxy-1-methyl-3-(1H-1,2,4-triazol-1-yl)propyl]-7-(1H-1,2,4-triazol-1-yl)quinazolin-4(3H)-one], in assay [1], the responders at 1 mg/kg is 100%.
In the case of `C[C@@H](n1cnc2cc(S(=O)(=O)c3ccccc3)ccc2c1=O)[C@](O)(Cn1cncn1)c1ccc(F)cc1F` [Example 61, (1R,2R)-3-[2-(2,4-Difluorophenyl)-2-hydroxy-1-methyl-3-(1H-1,2,4-triazol-1-yl)propyl]-7-phenylsulfonylquinazolin-4(3H)-one], the MIC stood at 0.31 µg/mL (≈ 0.577 µM) in assay [2], 5 µg/mL (≈ 9.3 µM) in assay [3] and 5 µg/mL (≈ 9.3 µM) in assay [4].
As for `C[C@@H](n1cnc2cc3ccccc3cc2c1=O)[C@](O)(Cn1cncn1)c1ccc(F)cc1F` [Example 38, (1R,2R)-3-[2-(2,4-Difluorophenyl)-2-hydroxy-1-methyl-3-(1H-1,2,4-triazol-1-yl)propyl]benzo[g]quinazolin4(3H)-one], the values for the MIC in assay [2], in assay [3] and in assay [4] were no more than 0.03 µg/mL, 5 µg/mL (≈ 11.2 µM) and 20 µg/mL (≈ 44.7 µM), respectively.
For the compound `C[C@@H](n1cnc2ccc(Br)cc2c1=O)[C@](O)(Cn1cncn1)c1ccc(F)cc1F` [Example 10, (1R,2R)-6-Bromo-3-[2-(2,4-difluorophenyl)-2-hydroxy-1-methyl-3-(1H-1,2,4-triazol-1-yl)propyl]quinazolin4(3H)-one], the responders at 1 mg/kg in assay [1] is 100%.
Same read-out and setting: to `C[C@@H](n1cnc2cc(-c3ccc(C(=N)NC#N)cc3)sc2c1=O)[C@](O)(Cn1cncn1)c1ccc(F)cc1F` [Example 65, (1R,2R)-6-[4-[Cyanoamino(imino)methyl]phenyl]-3-[2-(2,4-difluorophenyl)-2-hydroxy-1-methyl-3-(1H-1,2,4-triazol-1-yl)propyl]thieno[3,2-d]pyrimidin-4(3H)-one] belongs 100%.
Regarding `Cc1ccc2ncn([C@H](C)[C@](O)(Cn3cncn3)c3ccc(F)cc3F)c(=O)c2c1` [Example 24, (1R,2R)-3-[2-(2,4-Difluorophenyl)-2-hydroxy-1-methyl-3-(1H-1,2,4-triazol-1-yl)propyl]-6-methylquinazolin-4(3H)-one], the MIC in assay [2] was no more than 0.03 µg/mL; in assay [3], 2.5 µg/mL (≈ 6.08 µM); in assay [4], 40 µg/mL (≈ 97.2 µM).
Consider `C[C@@H](n1cnc2cc(Cl)ccc2c1=O)[C@](O)(Cn1cncn1)c1ccc(Cl)cc1Cl` [Example 52, (1R,2R)-7-Chloro-3-[2-(2,4-dichlorophenyl)-2-hydroxy-1-methyl-3-(1H-1,2,4-triazol-1-yl)propyl]quinazolin-4(3H)-one], for which, in assay [1], the responders at 1 mg/kg is 100%.
In the case of `C[C@@H](n1cnc2cc(C(F)(F)F)ccc2c1=O)[C@](O)(Cn1cncn1)c1ccc(Cl)cc1Cl` [Example 53, (1R,2R)-3-[2-(2,4-Dichlorophenyl)-2-hydroxy-1-methyl-3-(1H-1,2,4-triazol-1-yl)propyl]-7-trifluoromethylquinazolin-4(3H)-one], the responders at 1 mg/kg in assay [1] worked out at 100%.
As to `C[C@@H](n1cnc2cc(-c3ccc(C(=N)NCCN)cc3)sc2c1=O)[C@](O)(Cn1cncn1)c1ccc(F)cc1F` [Example 70, (1R,2R)-6-[4-[(2-Aminoethylamino)(imino)methyl]phenyl]-3-[2-(2,4-difluorophenyl)-2-hydroxy-1-methyl-3-(1H-1,2,4-triazol-1-yl)propyl]thieno[3,2-d]pyrimidin-4(3H)-one], the MIC amounted to 0.07 µg/mL (≈ 0.124 µM) in assay [2], 10 µg/mL (≈ 17.7 µM) in assay [3] and 20 µg/mL (≈ 35.4 µM) in assay [4].
For `CC(=O)ONC(=N)c1ccc(-c2cc3ncn([C@H](C)[C@](O)(Cn4cncn4)c4ccc(F)cc4F)c(=O)c3s2)cc1` [Example 68], in that order: 0.31 µg/mL (≈ 0.535 µM), 10 µg/mL (≈ 17.3 µM) and 20 µg/mL (≈ 34.5 µM).
As to `C[C@@H](n1cnc2cc(F)ccc2c1=O)[C@](O)(Cn1cncn1)c1ccc(F)cc1F` [Example 12, (1R,2R)-3-[2-(2,4-Difluorophenyl)-2-hydroxy-1-methyl-3-(1H-1,2,4-triazol-1-yl)propyl]-7-fluoroquinazolin-4(3H)-one], the MIC is no more than 0.03 µg/mL in assay [2], 1.25 µg/mL (≈ 3.01 µM) in assay [3] and 1.25 µg/mL (≈ 3.01 µM) in assay [4].
In the case of `C[C@@H](n1cnc2cc(-c3ccc(C4=NCCO4)cc3)sc2c1=O)[C@](O)(Cn1cncn1)c1ccc(F)cc1F` [Example 69, (1R,2R)-3-[2-(2,4-Difluorophenyl)-2-hydroxy-1-methyl-3-(1-H-1,2,4-triazol-1-yl)propyl]-6-[4-(4,5-dihydrooxazol-2-yl)phenyl]thieno[3,2-d]pyrimidin-4(3H)-one], the responders at 1 mg/kg in assay [1] worked out at 100%.
As for `C[C@@H](n1cnc2ccccc2c1=O)[C@](O)(Cn1cncn1)c1ccc(F)cc1F` [Example 5, (1R,2R)-3-[2-(2,4-Difluorophenyl)-2-hydroxy-1-methyl-3-(1H-1,2,4-triazol-1-yl)propyl]quinazolin-4(3H)-one], the values for the MIC in assay [2], in assay [3] and in assay [4] were 0.07 µg/mL (≈ 0.176 µM), 5 µg/mL (≈ 12.6 µM) and 10 µg/mL (≈ 25.2 µM), respectively.
For `C[C@@H](n1cnc2c(Cl)cc(Cl)cc2c1=O)[C@](O)(Cn1cncn1)c1ccc(F)cc1F` [Example 9, (1R,2R)-6,8Dichloro-3-[2-(2,4-difluorophenyl)-2-hydroxy-1-methyl-3-(1H-1,2,4-triazol-1-yl)propyl]quinazolin4(3H)-one], the responders at 1 mg/kg in assay [1] was found to be 100%.
As for `C[C@@H](n1cnc2cc(NCc3ccccc3)ccc2c1=O)[C@](O)(Cn1cncn1)c1ccc(F)cc1F` [Example 71, (1R,2R)-7-Benzylamino-3-[2-(2,4-difluorophenyl)-2-hydroxy-1-methyl-3-(1H-1,2,4-triazol-1-yl)propyl]quinazolin-4(3H)-one], the results for the MIC in assay [2], in assay [3] and in assay [4] were no more than 0.03 µg/mL, 2.5 µg/mL (≈ 4.97 µM) and 5 µg/mL (≈ 9.95 µM), respectively.
Regarding `C[C@@H](n1cnc2cc(-c3ccc(C(F)(F)F)cc3)sc2c1=O)[C@](O)(Cn1cncn1)c1ccc(F)cc1F` [Example 33, (1R,2R)-3-[2-(2,4-Difluorophenyl)-2-hydroxy-1-methyl-3-(1H-1,2,4-triazol-1-yl)propyl]-6-[(4-trifluoromethyl)phenyl]thieno[3,2-d]pyrimidin-4(3H)-one], the responders at 1 mg/kg in assay [1] came to 100%.
On the same count and under the same terms, to `C[C@@H](n1cnc2cc(OCC(F)F)ccc2c1=O)[C@](O)(Cn1cncn1)c1ccc(F)cc1F` [Example 19, (1R,2R)-7-(2,2-Difluoroethoxy)-3-[2-(2,4-difluorophenyl)-2-hydroxy-1-methyl-3-(1H-1,2,4-triazol-1-yl)propyl]quinazolin-4(3H)-one] belongs 100%.
